In the supplement of paper PMC7840683:
Counter-ions that a name gives are not always drawn. ± gives the standard deviation of the averaged measurements.

System: HepaRG
Assay: LDH release cytotoxicity, % of total lysis control; higher = more cytotoxic
Conditions: 48 h
Method in brief: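 Percent cytotoxicity was scaled between on-plate vehicle and total lysis controls, then averaged over duplicate wells. The cells were single-lot HepaRG on collagen I-coated 96-well plates, exposed for 48 h to eight-point half-log test chemical series topping at 100 µM in serum-free induction medium with 0.5% DMSO. Total lysis wells got 0.1% Triton X, and LDH in 50 µL spent medium was read as resorufin fluorescence (CytoTox-ONE, Tecan Safire).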

c1nc[nH]n1 [1H-1,2,4-Triazole]
Conditions | LDH release cytotoxicity [%]
0.03162 µM | 0.679 ± 0.53
0.1 µM | 0.298 ± 0.72
0.3162278 µM | -1.06 ± 0.17
1 µM | -0.618 ± 0.53
3.16228 µM | 0.566 ± 1.4
10 µM | 0.541 ± 1.2
31.6228 µM | 1.08 ± 0.1
100 µM | 2.04 ± 1.2

CNC(=O)N(C)c1nnc(C(C)(C)C)s1 [Tebuthiuron]
Conditions | LDH release cytotoxicity [%]
0.03162 µM | -1.29 ± 0.35
0.1 µM | -1.38 ± 0.11
0.3162278 µM | -1.87 ± 0.62
1 µM | -1.53 ± 0.63
3.16228 µM | -0.935 ± 0.044
10 µM | -1.24 ± 0.31
31.6228 µM | -1.15 ± 0.46
100 µM | 0.223 ± 0.25

O=C(O)c1cccc(C(=O)O)c1 [1,3-Benzenedicarboxylic acid]
Conditions | LDH release cytotoxicity [%]
0.03162 µM | -2.12 ± 0.44
0.1 µM | -1.69 ± 0.34
0.3162278 µM | -1.63 ± 0.21
1 µM | -2.28 ± 0.37
3.16228 µM | -2.24 ± 0.28
10 µM | -1.69 ± 0.35
31.6228 µM | 0.0627 ± 0.62
100 µM | 4.89 ± 0.58

CCCCC(CC)C(=O)OCCOCCOCCOC(=O)C(CC)CCCC (stereo not given) [Triethylene glycol bis(2-ethylhexanoate)]
Conditions | LDH release cytotoxicity [%]
0.03162 µM | -2.57 ± 0.42
0.1 µM | -3.93 ± 0.075
0.3162278 µM | -3.45 ± 0.14
1 µM | -3.69 ± 0.87
3.16228 µM | -3.81 ± 1.2
10 µM | -4.01 ± 1.4
31.6228 µM | -5.53 ± 4
100 µM | -1.89 ± 0.23

CC(=O)N1CCN(c2ccc(OCC3COC(Cn4ccnc4)(c4ccc(Cl)cc4Cl)O3)cc2)CC1 (stereo not given) [Ketoconazole]
Conditions | LDH release cytotoxicity [%]
0.03162 µM | -3.06 ± 0.81
0.1 µM | -3.11 ± 0.33
0.3162278 µM | -2.22 ± 0.27
1 µM | -2.59 ± 0.32
3.16228 µM | -2.26 ± 0.88
10 µM | 2.6 ± 2.2
31.6228 µM | 1.63 ± 0.66
100 µM | 80.8 ± 7.1

CC(C)(C)CC(C)(C)c1ccc(O)c(-n2nc3ccccc3n2)c1 [Octrizole]
Conditions | LDH release cytotoxicity [%]
0.03162 µM | -2.72 ± 1.6
0.1 µM | -2.89 ± 0.71
0.3162278 µM | -2.68 ± 0.86
1 µM | -3.09 ± 0.49
3.16228 µM | -3.1 ± 0.38
10 µM | -2.49 ± 0.85
31.6228 µM | -1.9 ± 1.4
100 µM | -2.37 ± 0.56

Oc1ccc(Cl)cc1Cc1ccccc1 [Clorophene]
Conditions | LDH release cytotoxicity [%]
0.031939 µM | -1.4 ± 0.39
0.101 µM | -1.14 ± 0.47
0.31939 µM | -1.6 ± 0.87
1.01 µM | -1.11 ± 1.2
3.1939004 µM | -0.749 ± 0.49
10.1 µM | -0.231 ± 0.26
31.939 µM | -0.479 ± 0.25
101 µM | 54 ± 2

CC(=O)Oc1ccccc1C(=O)O [Aspirin]
Conditions | LDH release cytotoxicity [%]
0.03162 µM | -1.2 ± 0.093
0.1 µM | -0.322 ± 0.2
0.3162278 µM | 0.562 ± 0.26
1 µM | -0.207 ± 0.53
3.16228 µM | -0.296 ± 0.42
10 µM | -0.207 ± 0.33
31.6228 µM | 0.489 ± 0.23
100 µM | 2.14 ± 0.33

Cc1nc[nH]c1CC1CCc2c(C)c3ccccc3n2C1=O (stereo not given) [Fabesetron hydrochloride]
Conditions | LDH release cytotoxicity [%]
0.0281443 µM | -1.11 ± 1.1
0.089 µM | -1.43 ± 0.83
0.281443 µM | -1.19 ± 0.51
0.89 µM | -1.4 ± 0.97
2.81443 µM | -1.38 ± 1.2
8.9 µM | -0.0311 ± 2
28.144271 µM | 43.7 ± 4.9
89 µM | 76.2 ± 2.1

CCCOCC(=Nc1ccc(Cl)cc1C(F)(F)F)n1ccnc1 [Triflumizole]
Conditions | LDH release cytotoxicity [%]
0.03162 µM | -0.709 ± 0.69
0.1 µM | -1.15 ± 0.39
0.3162278 µM | -0.687 ± 0.077
1 µM | -0.497 ± 0.18
3.16228 µM | -0.543 ± 1
10 µM | -0.414 ± 0.008
31.6228 µM | -0.332 ± 0.2
100 µM | 0.335 ± 0.21

O=Cc1ccco1 [Furfural]
Conditions | LDH release cytotoxicity [%]
0.03162 µM | -1.57 ± 0.78
0.1 µM | -2.07 ± 1.7
0.3162278 µM | -2.64 ± 0.63
1 µM | -3.82 ± 2.1
3.16228 µM | -4.51 ± 0.77
10 µM | -0.135 ± 1.1
31.6228 µM | -0.567 ± 0.12
100 µM | 3.05 ± 1.1

CCCCCCCCC=CCCCCCCCC(=O)OCC(O)C1OCC(O)C1O (stereo not given) [Sorbitan, mono-(9Z)-9-octadecenoate]
Conditions | LDH release cytotoxicity [%]
0.03162 µM | -0.746 ± 0.21
0.1 µM | -0.105 ± 0.41
0.3162278 µM | -1.38 ± 0.83
1 µM | -1.65 ± 0.91
3.16228 µM | -1.48 ± 1
10 µM | -1.08 ± 0.14
31.6228 µM | -0.835 ± 0.26
100 µM | -0.317 ± 0.22

ClC1=C(Cl)C2(Cl)C3C(Cl)C(Cl)CC3C1(Cl)C2(Cl)Cl (stereo not given) [Chlordane]
Conditions | LDH release cytotoxicity [%]
0.03162 µM | -0.889 ± 1.7
0.1 µM | -0.0312 ± 0.73
0.3162278 µM | -1.4 ± 0.067
1 µM | -2.2 ± 0.83
3.16228 µM | -1.5 ± 0.36
10 µM | -0.57 ± 0.073
31.6228 µM | -0.758 ± 0.6
100 µM | 12 ± 4.7

CSC(=O)c1c(C(F)F)nc(C(F)(F)F)c(C(=O)SC)c1CC(C)C [Dithiopyr]
Conditions | LDH release cytotoxicity [%]
0.0140721 µM | -1.51 ± 2.5
0.0445 µM | -2.25 ± 0.63
0.1407214 µM | -2.63 ± 0.43
0.445 µM | -3.81 ± 0.56
1.4072136 µM | -3.84 ± 0.3
4.45 µM | -5.82 ± 2.5
14.072136 µM | -1.76 ± 2.3
44.5 µM | -1.31 ± 1.6

CC(O)CN(CCN(CC(C)O)CC(C)O)CC(C)O (stereo not given) [1,1',1'',1'''-(Ethanediylnitrilo)tetrakis(2-propanol)]
Conditions | LDH release cytotoxicity [%]
0.03162 µM | -1.14 ± 0.41
0.1 µM | -1.86 ± 1.1
0.3162278 µM | -1.7 ± 0.17
1 µM | -2.22 ± 0.98
3.16228 µM | -2.41 ± 0.2
10 µM | -1.35 ± 1.4
31.6228 µM | 5.57 ± 1.1
100 µM | 18.7 ± 1.4

Oc1cc2ccccc2c2ccccc12 [9-Phenanthrol]
Conditions | LDH release cytotoxicity [%]
0.03162 µM | -1.97 ± 0.66
0.1 µM | -2.29 ± 0.44
0.3162278 µM | -2.11 ± 0.28
1 µM | -2.1 ± 0.98
3.16228 µM | -2.21 ± 0.069
10 µM | -2.2 ± 0.41
31.6228 µM | -2.94 ± 0.08
100 µM | 0.0725 ± 0.99

Cc1ccc(C(C)C)cc1 [p-Cymene]
Conditions | LDH release cytotoxicity [%]
0.01581 µM | -0.487 ± 2.9
0.05 µM | -1.9 ± 1.2
0.1581139 µM | -3.02 ± 0.62
0.5 µM | -2.63 ± 0.3
1.5811388 µM | -1.96 ± 0.66
5 µM | -2.1 ± 0.077
15.8114 µM | -1.51 ± 0.39
50 µM | 0.041 ± 0.062

CN1C(=O)N(c2ccccc2Br)Cc2cnc(Nc3ccc4c(c3)OCC(CO)O4)nc21 (stereo not given)
Conditions | LDH release cytotoxicity [%]
0.03162 µM | 0.454 ± 1.5
0.1 µM | -0.735 ± 1
0.3162278 µM | -1.07 ± 0.81
1 µM | -1.37 ± 0.18
3.16228 µM | -0.0336 ± 0.15
10 µM | 0.443 ± 0.9
31.6228 µM | 8.29 ± 1.1
100 µM | 63.4 ± 0.97

CCC(C)(NC(=O)c1cc(Cl)c(C)c(Cl)c1)C(=O)CCl (stereo not given) [Zoxamide]
Conditions | LDH release cytotoxicity [%]
0.0317809 µM | -0.27 ± 0.064
0.1005 µM | -0.966 ± 0.8
0.317809 µM | -0.7429 ± 0.0016
1.005 µM | -1.43 ± 0.81
3.17809 µM | -0.947 ± 0.12
10.05 µM | -0.343 ± 0.64
31.7809 µM | -1.15 ± 0.96
100.5 µM | 41.9 ± 2.7

O=C1CCC(N2C(=O)c3ccccc3C2=O)C(=O)N1 (stereo not given) [Thalidomide]
Conditions | LDH release cytotoxicity [%]
0.03162 µM | -0.888 ± 0.55
0.1 µM | -1.52 ± 0.44
0.3162278 µM | -0.291 ± 0.28
1 µM | -0.415 ± 0.18
3.16228 µM | -0.0333 ± 0.45
10 µM | 0.674 ± 0.93
31.6228 µM | 1.56 ± 1.5
100 µM | 1.53 ± 1.5
